The test system of data set [1] is HaCaT cells. The experiment in a line: SNP-induced cell death in HaCaT cells, MTT assay and phase-contrast microscopy. Type of data set: cell-based, human. As to conditions: for SNP-induced cell death (cell viability, MTT assay): pretreated with 80 μM of Nec-1 and/or 20 μM of zVAD for 1 hour, followed by SNP. The protocol: Whether SNP-induced cell death is improved by […] necrostatin-1 (Nec-1), and combination treatment of zVAD and Nec-1 was examined in HaCaT cells using MTT assay and phase-contrast microscopy. Cells were pretreated with 80 μM of Nec-1 and/or 20 μM of zVAD for 1 hour, followed by SNP treatment.

For data set [2], the system named is SNP-induced cell death. The experiment in a line: SNP-induced cell death with ROS scavenger or MAPK pathway inhibitors. The data set is classed as cell-based. Particulars: pretreatment or treatment with inhibitor. The text has this:
However, as shown in FIGS. 11A and 11B, in cells pretreated with NAC having ROS scavenging ability, SNP-induced cell death was inhibited similarly in Nec-1 treated group (FIG. 11A). From this, it was confirmed again that ROS is associated with SNP-induced cell death. Further, SNP-induced cell death was inhibited by treatment with JNK inhibitor […] (SP), p38 inhibitor sB202190 (SB), and MEK, upstream of ERK, inhibitor PD98059 (PD) (FIG. 11B).

Data set [3] deals with HEKn cells.
Data set [4] has as its system RIP3 overexpressing cells. The data set is described as follows: MLKL phosphorylation inhibition in RIP3 overexpressing cells. Type of data set: cell-based, human. The source says: As shown in FIGS. 17A and 17B, the basal phosphorylation of MLKL in RIP3 overexpressing cells, and SNP-induced p-MLKL were eliminated by an RIP3 inhibitor dabrafenib (FIG. 17A).
In data set [5] the test system is HaCaT and HEKn. The data set is described as follows: TNFα-induced necroptosis stimuli (TCZ or TSZ) in keratinocytes. Type of data set: cell-based, human. As to conditions: TNFα + zVAD + cyclohexamide or SMAC mimetic. The source says:
The immortal human keratinocyte line HaCaT and primary human epidermal keratinocyte isolated from neonatal foreskin (HEKn) responded to prototypical necroptosis stimuli induced by TNFα (TNFα[…]+zVAD+cyclohexamide or SMAC mimetic; also referred to herein as TCZ or TSZ). […] Additionally, from a knockout model, it was confirmed whether RIP3 and RIP1 affect TNF-induced cell death via necroptosis.

The values below come from patent publication US10624891B2, “Method of diagnosing and treating skin necroptosis disease comprising RIP3-MLKL pathway blocker” (Ajou University Industry-Academic Cooperation Foundation, priority 2015, dated 2020).

Where two headings read alike, the source gives them in different places. Where a SMILES comes first, the peptide text is derived from it. The star is where a group is joined. Cbz = O=C(OCc1ccccc1)*; CH2F = FC*

As to `CN1C(=O)C(Cc2c[nH]c3ccccc23)NC1=S` (stereo not drawn) [Nec-1, necrostatin-1], in data set [1], the “SNP-induced cell death (phase-contrast microscopy and Annexin-V staining)” value is “inhibited”; the “SNP-induced cell death (cell viability, MTT assay)” value is “reduced”. Also, the SNP-induced cell death entry in data set [2] was “inhibited”. The “protection from acute SNP cytotoxicity / SNP-induced cell death” value in data set [3] (HEKn cells) is “protected HEKn cells from acute SNP cytotoxicity more effectively than zVAD”.

For `COc1cccc(-c2cc(=O)c3ccccc3o2)c1N` [PD98059], the SNP-induced cell death entry in data set [2] is “inhibited”. On to `CC(C)(C)c1nc(-c2cccc(NS(=O)(=O)c3c(F)cccc3F)c2F)c(-c2ccnc(N)n2)s1` [dabrafenib], for which the “SNP-induced p-MLKL” value in data set [4] (SNP treated) is recorded as “eliminated”. Further, the “basal phosphorylation of MLKL” value in data set [4] (no SNP) is on record as “eliminated”. In addition, the “protection from acute SNP cytotoxicity / SNP-induced cell death” value in data set [3] is recorded as “protected HEKn cells from acute SNP cytotoxicity more effectively than zVAD”. On to `O=C1c2ccccc2-c2n[nH]c3cccc1c23` [SP420119], for which, in data set [2], the SNP-induced cell death result was “inhibited”. Turning to `COc1nccnc1NS(=O)(=O)c1ccc(NC(=O)/C=C/c2ccc([N+](=O)[O-])s2)cc1` [NSA, necrosulfonamide], the “protection from acute SNP cytotoxicity / SNP-induced cell death” value in data set [3] (HEKn cells) is on record as “protected HEKn cells from acute SNP cytotoxicity more effectively than zVAD”.

As for `CC(NC(=O)C(NC(=O)OCc1ccccc1)C(C)C)C(=O)NC(CC(=O)O)C(=O)CF` (stereo not drawn) [zVAD] (Cbz-Val-Ala-Asp-CH2F; configuration not given here), in data set [5], the TNF-induced cell death result is listed as “did not prevent”; the “caspase-3 and PARP processing” value is on record as “completely blocked”. In addition, the “SNP-induced cell death (cell viability, MTT assay)” value in data set [1] is recorded as “reduced”.

With `CC(=O)N[C@@H](CS)C(=O)O` [NAC], in data set [2], the SNP-induced cell death entry is “inhibited”. On the same count and under the same terms, under `Oc1ccc(-c2nc(-c3ccncc3)c(-c3ccc(F)cc3)[nH]2)cc1` [sB202190] stands “inhibited”.
